Experimental data reported in ChEMBL document CHEMBL4270507, “Covalent binding design strategy: A prospective method for discovery of potent targeted anticancer agents” (Eur J Med Chem, 2017).

Each compound was assayed against Tyrosine-protein kinase BTK (Homo sapiens, UniProt Q06187) (assay: Inhibition of BTK (unknown origin)).

IC50 [nM] | SMILES
0.52 | Nc1ncnc2c1c(-c1ccc(Oc3ccccc3)cc1)nn2C1CCCN(C(=O)/C=C/Cl)C1 (configuration not stated)

Each compound was assayed on GTPase KRas (Homo sapiens), P01116 [G12C] (assay: Binding affinity to hexa-histidine-tagged recombinant human K-Ras isoform 2 G12C mutant (1 to 169 residues) expressed in Escherichia coli BL21 (DE3) at 10 uM after 24 hrs).

Activity [%] | SMILES
100 | C=CC(=O)N1CCN(C(=O)CNc2cc(I)c(Cl)cc2O)CC1
50 | C=CS(=O)(=O)NC1CCN(C(=O)CNc2c(Cl)cc(Cl)c3c2OC(C)(C)O3)CC1
87 | C=CS(=O)(=O)NC1CCN(C(=O)CNc2cc(Cl)c(Cl)cc2O)CC1
100 | C=CS(=O)(=O)NC1CCN(C(=O)CNc2cc(I)c(Cl)cc2OC)CC1
28 | C=CC(=O)N1CCN(C(=O)CNc2cc(Cl)c(Cl)cc2OC)CC1
14 | C=CC(=O)N1CCN(C(=O)CNc2cc(C(F)(F)F)c(Cl)cc2OC)CC1
